Assay results reported in ChEMBL document CHEMBL5506051, “Structure-Activity Relationships toward the Identification of a High-Potency Selective Human Toll-like Receptor-7 Agonist” (J Med Chem, 2024).

Assays:
Toll-like receptor 7 = molecular target: T1, Toll-like receptor 7 (Homo sapiens, UniProt Q9NYK1); experiment: Agonist activity at human TLR7 in HEK-Blue hTLR7 cells assessed as increase in inducible SEAP level incubated for overnight by QUANTI-Blue reagent based assay; assay type: cell-based
T1 sequence (Q9NYK1 whole entry): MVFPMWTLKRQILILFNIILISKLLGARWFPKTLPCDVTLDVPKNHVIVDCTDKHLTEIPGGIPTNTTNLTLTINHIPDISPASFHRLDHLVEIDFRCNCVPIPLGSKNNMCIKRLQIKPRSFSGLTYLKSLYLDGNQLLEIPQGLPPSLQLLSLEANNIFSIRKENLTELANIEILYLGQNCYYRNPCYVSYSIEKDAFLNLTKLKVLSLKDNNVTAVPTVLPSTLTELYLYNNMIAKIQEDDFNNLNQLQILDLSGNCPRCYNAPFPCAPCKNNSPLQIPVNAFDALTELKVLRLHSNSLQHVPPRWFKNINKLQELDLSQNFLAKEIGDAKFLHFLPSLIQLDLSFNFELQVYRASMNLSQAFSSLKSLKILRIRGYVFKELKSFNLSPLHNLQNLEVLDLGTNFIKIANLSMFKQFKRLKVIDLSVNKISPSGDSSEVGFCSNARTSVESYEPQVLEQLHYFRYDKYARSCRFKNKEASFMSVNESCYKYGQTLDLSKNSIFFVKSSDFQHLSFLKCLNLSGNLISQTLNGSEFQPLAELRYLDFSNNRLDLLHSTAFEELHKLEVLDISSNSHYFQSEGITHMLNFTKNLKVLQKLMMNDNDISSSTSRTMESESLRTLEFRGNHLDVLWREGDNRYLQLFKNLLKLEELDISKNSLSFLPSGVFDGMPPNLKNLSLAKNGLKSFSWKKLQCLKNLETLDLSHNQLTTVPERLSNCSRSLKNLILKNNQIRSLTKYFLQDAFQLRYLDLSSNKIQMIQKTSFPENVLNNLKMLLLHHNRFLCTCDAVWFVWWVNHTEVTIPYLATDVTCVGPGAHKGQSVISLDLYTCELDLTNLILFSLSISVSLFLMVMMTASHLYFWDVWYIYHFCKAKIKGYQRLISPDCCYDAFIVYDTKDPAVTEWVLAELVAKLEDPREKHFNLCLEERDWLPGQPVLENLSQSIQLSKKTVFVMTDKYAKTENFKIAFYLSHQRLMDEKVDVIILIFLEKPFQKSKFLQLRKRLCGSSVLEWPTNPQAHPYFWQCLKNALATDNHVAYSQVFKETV

Toll-like receptor 8 = molecular target: T2, Toll-like receptor 8 (Homo sapiens, UniProt Q9NR97); experiment: Agonist activity at human TLR8 in HEK-Blue hTLR8 cells assessed as increase in inducible SEAP level incubated for overnight by QUANTI-Blue reagent based assay; assay type: cell-based
T2 sequence (Q9NR97 whole entry): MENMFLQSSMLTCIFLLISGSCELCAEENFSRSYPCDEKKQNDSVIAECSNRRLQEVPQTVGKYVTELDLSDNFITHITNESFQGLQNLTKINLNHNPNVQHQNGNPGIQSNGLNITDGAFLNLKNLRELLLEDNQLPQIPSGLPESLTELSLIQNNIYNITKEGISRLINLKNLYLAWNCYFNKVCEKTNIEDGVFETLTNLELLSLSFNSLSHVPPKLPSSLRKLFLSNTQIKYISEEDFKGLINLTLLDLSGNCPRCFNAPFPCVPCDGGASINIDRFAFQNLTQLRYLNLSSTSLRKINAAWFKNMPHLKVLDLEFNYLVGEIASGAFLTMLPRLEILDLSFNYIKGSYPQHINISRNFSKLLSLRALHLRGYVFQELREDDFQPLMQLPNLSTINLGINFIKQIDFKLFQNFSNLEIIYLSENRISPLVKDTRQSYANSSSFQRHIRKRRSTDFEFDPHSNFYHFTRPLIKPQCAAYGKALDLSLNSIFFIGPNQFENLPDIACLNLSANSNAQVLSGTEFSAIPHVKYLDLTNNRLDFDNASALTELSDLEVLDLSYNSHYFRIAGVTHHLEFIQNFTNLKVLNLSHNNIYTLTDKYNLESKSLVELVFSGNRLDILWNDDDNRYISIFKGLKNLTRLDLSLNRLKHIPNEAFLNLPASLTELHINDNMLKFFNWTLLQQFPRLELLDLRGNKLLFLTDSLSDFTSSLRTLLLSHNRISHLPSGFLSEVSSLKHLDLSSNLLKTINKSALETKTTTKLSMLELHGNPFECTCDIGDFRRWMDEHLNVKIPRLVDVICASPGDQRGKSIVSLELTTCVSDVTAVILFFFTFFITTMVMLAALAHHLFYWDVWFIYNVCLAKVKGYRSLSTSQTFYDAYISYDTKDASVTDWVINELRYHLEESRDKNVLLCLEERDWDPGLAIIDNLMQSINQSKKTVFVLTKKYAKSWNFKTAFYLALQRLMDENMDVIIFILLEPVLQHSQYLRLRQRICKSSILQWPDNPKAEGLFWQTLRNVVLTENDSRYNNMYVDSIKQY

Homo sapiens [1] = species: Homo sapiens; experiment: Selectivity ratio of agonist activity at human TLR8 to agonist activity at human TLR7
[2] = tested on: Panel NCI-60 (60 carcinoma cell lines); experiment: Cytotoxicity against human Panel NCI-60 (60 carcinoma cell lines) at <=10 uM; assay type: toxicity, cell-based
Homo sapiens [3] = species: Homo sapiens; experiment: Selectivity index, ratio of EC50 for agonist activity at human TLR7 in HEK-Blue hTLR7 cells to EC50 for agonist activity at human TLR8 in HEK-Blue hTLR8 cells; assay type: cell-based
[4] = molecular target: T3, Toll-like receptor 7 (Homo sapiens) (UniProt Q9NYK1); experiment: Potency index, ratio of BBIQ EC50 to test compound EC50 for agonist activity at human TLR7 in HEK-Blue hTLR7 cells assessed as increase in inducible SEAP level incubated for overnight by QUANTI-Blue reagent based assay; assay type: cell-based; conditions: filed as agonist
T3 sequence (whole entry): T1 sequence (Q9NYK1 whole entry)

SMILES	EC50 (Toll-like receptor 7) [µM]	EC50 (Toll-like receptor 8) [µM]	further results
CC(C)Cn1cnc2c(N)nc3ccccc3c21 [IMIQUIMOD]	8.29	–	–
CCCCc1nc2c(N)nc3ccccc3c2n1Cc1ccc(C(=O)NCC(C)(C)O)cc1	0.31	25.8	–
CCCCc1nc2c(N)nc3ccccc3c2n1Cc1ccccc1	0.85	–	–
CCCCc1nc2c(N)nc3ccccc3c2n1Cc1ccc(C(=O)NN)cc1	1.1	–	–
CCCCOc1nc(N)c2c(n1)N(Cc1cccc(CN3CCCC3)c1)CC(=O)N2	–	–	Selectivity ratio (Homo sapiens [1]): 30
CCCCCCCCNC(=O)c1ccc(Cn2c(CCCC)nc3c(N)nc4ccccc4c32)cc1	–	–	Activity [2]: Non-Toxic
CCCCc1nc2c(N)nc3ccccc3c2n1Cc1ccc(C(N)=O)cc1	0.32	18.2	Ratio EC50 (Homo sapiens [3]): 57; Ratio EC50 [4]: 3
CCCCc1nc2c(N)nc3ccccc3c2n1Cc1ccc(C(=O)NC)cc1	0.2	31.8	Ratio EC50 (Homo sapiens [3]): 159; Ratio EC50 [4]: 8; Activity [2]: Non-Toxic
CCCCc1nc2c(N)nc3ccccc3c2n1Cc1ccc(C(=O)NCCO)cc1	–	50.3	–
CCCCc1nc2c(N)nc3ccccc3c2n1Cc1ccc(O)cc1	–	125	–
CCCCc1nc2c(N)nc3ccccc3c2n1Cc1ccc(OC)cc1	1.83	–	–
